Test results: patent publication US20150196568A1, “SYSTEM FOR USE BY COMPOUNDING PHARMACISTS TO PRODUCE HORMONE REPLACEMENT MEDICINE CUSTOMIZED FOR EACH CUSTOMER” (priority 2003, published 2015)

Assay: ability of solvent combination to dissolve hormones
Format: physicochemical
Conditions: combination of ethoxy diglycol and propylene glycol in any ratio, compared with either solvent alone

With `C[C@]12CC[C@H]3[C@@H](CCC4=CC(=O)CC[C@@]43C)[C@@H]1CC[C@@H]2O` [testosterone] the ability to dissolve was “better than using any of the solvents alone”.
